According to patent US12544403B2, “Methods to treat mitochondrial-associated dysfunctions or diseases” (The General Hospital Corporation, priority 2019, dated 2026):

Tests used:
[1] = Brain tissue PO2 measurement (vestibular nuclei, optical probe); assay type: in vivo, mice; conditions: optical probe (FIG. 3G)
Method: Ndufs4^−/− and WT mice were anesthetized with Isoflurane (induction at 2-4%, maintenance at 1-1.5%), intubated, and mechanically ventilated with a tidal volume of 8 ml/kg, a respiratory rate of 110 breaths per minute and an inspired fraction of oxygen (FiO2) of 21%. Mice were placed in a prone position and the head was stabilized using a stereotaxic frame (ASI instruments, Inc., MI). After incision and dissection of the skin, an opening in the skull was performed using a micro-drill (MD-1200, Braintree Scientific, Inc., MA) and a PO2 probe was inserted at the desired location. The coordinates for the thalamic measurements were mediolateral [ML]=−1.00 mm, anterioposterior [AP]=−2.00 mm, and dorsoventral [DV]=−4.00 mm from the bregma, while the coordinates for the vestibular nuclei were ML=−1.25 mm, AP=−6.00 mm, and DV=−3.90 mm from the bregma. […] In some experiments the FiO2 was modulated over the course of the test and the brain PO2 was simultaneously measured.
(§1) Mice were housed in 80-L transparent acrylic boxes. […] The oxygen concentration was measured at the outlet port of the chamber with an O2 sensor (MiniOx 1; Ohio Medical), which was calibrated using an 8.55% O2 reference tank (Airgas). In a similar way the CO concentration was measured a CO sensor (MSA Altair PRO; MSA Safety Inc, Pittsburgh, Pa), which was calibrated using a 1000 ppm CO reference cylinder (Airgas). […]

[2] = Hematocrit and COHb measurements (blood gas analyzer) in mice chronically breathing CO; assay type: in vivo; conditions: for hematocrit: after three weeks of 600 ppm CO treatment
Method: Eighty microliters of blood were collected by tail snip into a heparinized capillary. Hemoglobin concentration, hematocrit and the saturation of hemoglobin with oxygen (O2Hb) and carbon monoxide (COHb) were measured using a blood gas analyzer (ABL800 FLEX, Radiometer, Copenhagen, Denmark).
(§2) Mice were housed in 80-L transparent acrylic boxes. Control chambers were provided with a constant flow of medical air at 21% FiO2. A concentration of 11% or 17% oxygen was obtained by mixing medical air with nitrogen obtained from a nitrogen generator (MAG-20; Higher Peak). A concentration of 600 ppm CO was obtained by mixing medical air with CO from a cylinder containing 2% CO (20,000 ppm) (Airgas). The total gas flow through the chamber was adjusted to maintain chamber CO2 concentrations below 0.4% (CO200; Extech). Soda lime was added to the chambers as a CO2 scavenger. The oxygen concentration was measured at the outlet port of the chamber with an O2 sensor (MiniOx 1; Ohio Medical), which was calibrated using an 8.55% O2 reference tank (Airgas). In a similar way the CO concentration was measured a CO sensor (MSA Altair PRO; MSA Safety Inc, Pittsburgh, Pa), which was calibrated using a 1000 ppm CO reference cylinder (Airgas). Oxygen levels inside the chambers were tolerated within a 0.4% offset from the target concentration by adjusting nitrogen flow as needed. Temperature was maintained at 24-26° C., and humidity was maintained at 30-70%. A standard light-dark cycle of ˜12 h light exposure was used. Mice were housed in cages with standard bedding and given unlimited access to food and water.

Ndufs4 KO mice [3] = assay: T2-weighted brain MRI of Ndufs4 KO mice breathing CO; assay type: in vivo
Excerpt: as §2
MRI scans of the brain were performed as previously described (Ferrari et al., 2017), using respiratory gated T2-weighted RARE (rapid acquisition of refocused echoes) MRI images acquired on a 4.7-T small animal scanner (Pharmascan; Bruker) with the following parameters: RARE factor: 10, echo time: 60 ms, repetition time: 6000 ms, Averages: 8, 192×192×24 image matrix with a voxel size of 0.130×0.130×0.7 mm. Mice were under anesthesia (isoflurane between 0.5-1.5% in room air) during the imaging procedure. Images were generated using a DICOM reader (Osirix, University of Geneva).

Ndufs4 KO mice [4] = assay: Survival and body weight of Ndufs4 KO mice (Leigh syndrome model) breathing CO; assay type: in vivo
Excerpt: All animal work in manuscript was approved by the Subcommittee on Research Animal Care and the Institutional Animal Care and Use Committee of Massachusetts General Hospital. Ndufs4^−/− were obtained from Palmiter laboratory (University of Washington). Mice lacking Phd1 (Aragones et al., 2008), Nestin-Phd2 (Mazzone et al., 2009) and Phd3 (Bishop et al., 2008) were provided by the Carmeliet laboratory (KU Leuven). Vh1L^ch/ch mice were provided by Josef Prchal (University of Utah). Genetic crosses were performed by crossing Ndus4^+/− mice with remaining strains. Throughout this study, Ndufs4^+/+ and Ndufs4^+/− mice were indiscriminately used as healthy controls, since there is no apparent phenotypical difference between these genotypes. When possible, controls from the same genetic cross were used, in order to make comparisons between reasonably similar genetic backgrounds. Pups were genotyped and weaned from mothers at 25-30 d of age. Cages and water were changed weekly. […]
as §1

hemoglobin = hemoglobin (Homo sapiens, UniProt P68871+P69905); conditions: cited from earlier work
[5] = Ndufs4 KO mice exposed to CO for 2-3 months (FIG. 3H)

hemoglobin, sequence (P69905 2-142 limits assumed): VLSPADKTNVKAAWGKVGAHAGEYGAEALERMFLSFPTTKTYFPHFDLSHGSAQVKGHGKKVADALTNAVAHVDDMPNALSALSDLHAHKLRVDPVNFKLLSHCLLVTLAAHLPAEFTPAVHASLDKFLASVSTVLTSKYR
hemoglobin, sequence (P68871 2-147 limits assumed): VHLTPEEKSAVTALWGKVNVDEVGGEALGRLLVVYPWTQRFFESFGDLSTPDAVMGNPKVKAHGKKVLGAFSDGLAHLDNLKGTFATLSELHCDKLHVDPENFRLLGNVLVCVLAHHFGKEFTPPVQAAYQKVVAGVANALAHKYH

## [C-]#[O+] [CO, carbon monoxide]
[1]; Ndufs4 KO mice chronically breathing CO at 600 ppm in air
  brain PO2: 36 mmHg
[1]; WT mice chronically breathing CO at 600 ppm in air
  brain PO2: 19 mmHg
[2]; Ndufs4 KO mice
  hematocrit: 76%
[2]; WT mice
  hematocrit: 79%
[2]; chronic, continuous 600 ppm CO in air (FIG. 3C)
  arterial O2Hb: ~60%
[2]; chronic, continuous 600 ppm CO in air, WT mice (FIG. 3C)
  arterial COHb: ~40%
Ndufs4 KO mice [3]; [5]
  Leigh's disease lesions on MRI: not present
  new brain lesions on MRI due to chronic CO treatment: hyperintense lesions apparent in the caudoputamen region of the brain
Ndufs4 KO mice [3]; late-stage Ndufs4 KO mice, 600 ppm CO for 2-3 weeks (FIG. 3F)
  MRI lesions in the vestibular nucleus: completely reversed lesions in the vestibular nucleus
Ndufs4 KO mice [4]; 600 ppm CO in room air (FIG. 3E)
  median survival: ~150 days
Ndufs4 KO mice [4]; 600 ppm CO started at late-stage disease (FIG. 3D)
  body weight: body weight gradually regained
hemoglobin
  affinity for hemoglobin relative to oxygen: 200 fold
